Measured values reported in US6747033B2, “Fungicidal triazolopyrimid-7-ylideneamines” (BASF Aktiengesellschaft, priority 2000, dated 2004).
Where two headings read alike, the source gives them in different places.

What was measured:
Plasmopara viticola = experiment: In vivo fungicidal activity, Grape downy mildew (GDM); further: ranges in brackets are in %
Blumeria graminis = experiment: In vivo fungicidal activity, Wheat powdery mildew (WPM); further: ranges in brackets are in %
Botrytis cinera = experiment: In vivo fungicidal activity, Pepper Botrytis (PB); further: ranges in brackets are in %
[1] = system: Pyricularia grisea f. sp. oryzae; type: in vivo; conditions: Rice Blast
Alternara solani = experiment: In vivo fungicidal activity, Tomato early blight (TEB); further: ranges in brackets are in %
Cercospora beticola = experiment: In vivo fungicidal activity, Sugar Beet Cercospora (SBC); further: ranges in brackets are in %
Venturia inaequalis = experiment: In vivo fungicidal activity, Apple Scab (AS); further: ranges in brackets are in %
Rhizoctonia solani = experiment: In vitro fungicidal activity, Rice sheath blight (RHIZSO); type: cell-based; set-up: key: 0: None; 3: slight; 5: moderate; 7: severe; 9: complete; conditions: 3-7 days of incubation
Procedure: (§1) Test compounds are dissolved in acetone to give concentrations of 25, 10 and 1 ppm and are added to individual cell Walls (24-cell-well plates, Corning), which were previously filled with a suspension of ground plates, Corning), which were previously filled with a suspension of ground fungal mycelium in a chemically defined growth medium. After 3-7 days of incubation, inhibition of […] growth is recorded using the following scale: The data obtained are shown in Table II. [table]

Pythium ultimum = experiment: In vitro fungicidal activity, Fruit rot (PYTHUL); type: cell-based; set-up: key: 0: None; 3: slight; 5: moderate; 7: severe; 9: complete; conditions: 3-7 days of incubation
Procedure: as §1

[2] = system: Pseudocercosporella herpotrichoides; experiment: In vitro fungicidal activity, Cereal eye spot (PSDCHE); type: cell-based; set-up: key: 0: None; 3: slight; 5: moderate; 7: severe; 9: complete; conditions: 3-7 days of incubation
Procedure: as §1

Compound	GDM disease control rating (Plasmopara viticola; 12.5 ppm spray)	GDM disease control rating (Plasmopara viticola; 50 ppm spray)	WPM disease control rating (Blumeria graminis; 12.5 ppm spray)	WPM disease control rating (Blumeria graminis; 50 ppm spray)	PB disease control rating (Botrytis cinera; 12.5 ppm spray)	PB disease control rating (Botrytis cinera; 50 ppm spray)	RB disease control rating ([1]; 12.5 ppm spray)	RB disease control rating ([1]; 50 ppm spray)	TEB disease control rating (Alternara solani; 12.5 ppm spray)	TEB disease control rating (Alternara solani; 50 ppm spray)	SBC disease control rating (Cercospora beticola; 12.5 ppm spray)	SBC disease control rating (Cercospora beticola; 50 ppm spray)	AS disease control rating (Venturia inaequalis; 12.5 ppm spray)	AS disease control rating (Venturia inaequalis; 50 ppm spray)	GDM disease control rating (Plasmopara viticola; 200 ppm spray)	WPM disease control rating (Blumeria graminis; 200 ppm spray)	PB disease control rating (Botrytis cinera; 200 ppm spray)	RB disease control rating ([1]; 200 ppm spray)	TEB disease control rating (Alternara solani; 200 ppm spray)	AS disease control rating (Venturia inaequalis; 200 ppm spray)	other results
CCCn1c(Cl)c(-c2c(F)cc(OC)cc2F)c(=NC(C)C(F)(F)F)n2ncnc12 (stereo not drawn) [Example 4]	0 (0)	0 (0)	0 (0)	0 (0)	0 (0)	0 (0)	0 (0)	0 (0)	0 (0)	0 (0)	0 (0)	0 (0)	0 (0)	0 (0)	–	–	–	–	–	–	GDM disease control rating (Plasmopara viticola; 3.1 ppm spray): 4 (45-59); WPM disease control rating (Blumeria graminis; 3.1 ppm spray): 0 (0); PB disease control rating (Botrytis cinera; 3.1 ppm spray): 0 (0); RB disease control rating ([1]; 3.1 ppm spray): 0 (0); TEB disease control rating (Alternara solani; 3.1 ppm spray): 3 (30-44); SBC disease control rating (Cercospora beticola; 3.1 ppm spray): 0 (0); AS disease control rating (Venturia inaequalis; 3.1 ppm spray): 0 (0)
CCCn1cnn2c(=NC(C)C(F)(F)F)c(-c3c(F)cc(OC)cc3F)c(Cl)nc12 (stereo not drawn) [Example 12]	0 (0)	0 (0)	0 (0)	0 (0)	0 (0)	0 (0)	0 (0)	0 (0)	0 (0)	0 (0)	0 (0)	0 (0)	0 (0)	0 (0)	0 (0)	0 (0)	0 (0)	0 (0)	0 (0)	0 (0)	SBC disease control rating (Cercospora beticola; 200 ppm spray): 0 (0)
N-[5-chloro-3-methyl-6-(2,4,6-trifluorophenyl)-4H-[1,2,4]triazolo[1,5-α]pyrimidin-7-ylidene]-N-(2,2,2-trifluoroethyl)-amine [Example 1B]	0 (0)	0 (0)	0 (0)	0 (0)	0 (0)	0 (0)	0 (0)	0 (0)	0 (0)	2 (15-29)	0 (0)	6 (75-89)	4 (45-59)	4 (45-59)	7 (90-95)	0 (0)	6 (75-89)	5 (60-74)	4 (45-59)	5 (60-74)	RHIZSO inhibition of mycelial growth rating (Rhizoctonia solani; 1 ppm): 5; RHIZSO inhibition of mycelial growth rating (Rhizoctonia solani; 10 ppm): 5; RHIZSO inhibition of mycelial growth rating (Rhizoctonia solani; 25 ppm): 5; PYTHU inhibition of mycelial growth rating (Pythium ultimum; 1 ppm): 0; PYTHU inhibition of mycelial growth rating (Pythium ultimum; 10 ppm): 1; PYTHU inhibition of mycelial growth rating (Pythium ultimum; 25 ppm): 5; PSDCH inhibition of mycelial growth rating ([2]; 1 ppm): 0; PSDCH inhibition of mycelial growth rating ([2]; 10 ppm): 1; PSDCH inhibition of mycelial growth rating ([2]; 25 ppm): 3; SBC disease control rating (Cercospora beticola; 200 ppm spray): 6 (75-89)
CCn1c(Cl)c(-c2c(F)cc(F)cc2F)c(=NC(C)C(F)(F)F)n2ncnc12 (stereo not drawn) [Example 3]	0 (0)	4 (45-59)	0 (0)	0 (0)	2 (15-29)	0 (0)	0 (0)	0 (0)	3 (30-44)	3 (30-44)	0 (0)	0 (0)	0 (0)	0 (0)	4 (45-59)	3 (30-44)	0 (0)	5 (60-74)	0 (0)	6 (75-89)	RHIZSO inhibition of mycelial growth rating (Rhizoctonia solani; 1 ppm): 3; RHIZSO inhibition of mycelial growth rating (Rhizoctonia solani; 10 ppm): 5; RHIZSO inhibition of mycelial growth rating (Rhizoctonia solani; 25 ppm): 5; PYTHU inhibition of mycelial growth rating (Pythium ultimum; 1 ppm): 0; PYTHU inhibition of mycelial growth rating (Pythium ultimum; 10 ppm): 0; PYTHU inhibition of mycelial growth rating (Pythium ultimum; 25 ppm): 0; PSDCH inhibition of mycelial growth rating ([2]; 1 ppm): 0; PSDCH inhibition of mycelial growth rating ([2]; 10 ppm): 1; PSDCH inhibition of mycelial growth rating ([2]; 25 ppm): 1; SBC disease control rating (Cercospora beticola; 200 ppm spray): 0 (0)
CCCn1cnn2c(=NC(C)C(F)(F)F)c(-c3c(F)cc(F)cc3F)c(Cl)nc12 (stereo not drawn) [Example 11]	0 (0)	0 (0)	0 (0)	0 (0)	0 (0)	0 (0)	0 (0)	3 (30-44)	0 (0)	0 (0)	0 (0)	0 (0)	0 (0)	6 (75-89)	3 (30-44)	0 (0)	0 (0)	4 (45-59)	0 (0)	7 (90-95)	RHIZSO inhibition of mycelial growth rating (Rhizoctonia solani; 1 ppm): 0; RHIZSO inhibition of mycelial growth rating (Rhizoctonia solani; 10 ppm): 0; RHIZSO inhibition of mycelial growth rating (Rhizoctonia solani; 25 ppm): 0; PYTHU inhibition of mycelial growth rating (Pythium ultimum; 1 ppm): 0; PYTHU inhibition of mycelial growth rating (Pythium ultimum; 10 ppm): 1; PYTHU inhibition of mycelial growth rating (Pythium ultimum; 25 ppm): 1; PSDCH inhibition of mycelial growth rating ([2]; 1 ppm): 0; PSDCH inhibition of mycelial growth rating ([2]; 10 ppm): 0; PSDCH inhibition of mycelial growth rating ([2]; 25 ppm): 0; SBC disease control rating (Cercospora beticola; 200 ppm spray): 3 (30-44)
CC(N=c1c(-c2ccccc2Cl)c(Cl)n(C)c2ncnn12)C(F)(F)F (stereo not drawn) [Example 6]	0 (0)	0 (0)	0 (0)	0 (0)	0 (0)	0 (0)	0 (0)	0 (0)	0 (0)	0 (0)	–	–	0 (0)	0 (0)	7 (90-95)	5 (60-74)	0 (0)	5 (60-74)	0 (0)	5 (60-74)	RHIZSO inhibition of mycelial growth rating (Rhizoctonia solani; 1 ppm): 0; RHIZSO inhibition of mycelial growth rating (Rhizoctonia solani; 10 ppm): 0; RHIZSO inhibition of mycelial growth rating (Rhizoctonia solani; 25 ppm): 0; PYTHU inhibition of mycelial growth rating (Pythium ultimum; 1 ppm): 0; PYTHU inhibition of mycelial growth rating (Pythium ultimum; 10 ppm): 0; PYTHU inhibition of mycelial growth rating (Pythium ultimum; 25 ppm): 0; PSDCH inhibition of mycelial growth rating ([2]; 1 ppm): 0; PSDCH inhibition of mycelial growth rating ([2]; 10 ppm): 1; PSDCH inhibition of mycelial growth rating ([2]; 25 ppm): 0
CCCn1c(Cl)c(-c2c(F)cc(F)cc2F)c(=NC(C)C(F)(F)F)n2ncnc12 (stereo not drawn) [Example 2]	4 (45-59)	2 (15-29)	0 (0)	0 (0)	1 (1-14)	1 (1-14)	0 (0)	0 (0)	0 (0)	0 (0)	0 (0)	0 (0)	0 (0)	0 (0)	1 (1-14)	0 (0)	1 (1-14)	0 (0)	0 (0)	5 (60-74)	SBC disease control rating (Cercospora beticola; 200 ppm spray): 3 (30-44)
